Test results from patent US20080221109A1, “PESTICIDAL SUBSTITUTED THIOETHERS” (priority 2005, published 2008).

melting point: 51 °C
SMILES: O=C1CCCCC1Sc1ncccn1 (stereo not shown) [Compound 03-43, 2-(Pyrimidin-2-ylsulfanyl)-cyclohexanone]
